Numbered stars: 1 amine (or outer) side, 2 acyl side, 3 side chain; on linkers, the order of the positions; unused ones are H or OH. Peptide text beside a SMILES is read from it. * marks the point of attachment. C20 diacid = O=C(O)CCCCCCCCCCCCCCCCCCC(=O)*; C18 diacid = O=C(O)CCCCCCCCCCCCCCCCC(=O)*; γGlu = O=C(O)[C@H](CCC(=O)[*:2])N[*:1]

In data set [1] the target is T1, Amylin receptor AMY3; CALCR/RAMP3 (Homo sapiens, UniProt O60896+P30988).
T1 sequence (P30988 whole entry): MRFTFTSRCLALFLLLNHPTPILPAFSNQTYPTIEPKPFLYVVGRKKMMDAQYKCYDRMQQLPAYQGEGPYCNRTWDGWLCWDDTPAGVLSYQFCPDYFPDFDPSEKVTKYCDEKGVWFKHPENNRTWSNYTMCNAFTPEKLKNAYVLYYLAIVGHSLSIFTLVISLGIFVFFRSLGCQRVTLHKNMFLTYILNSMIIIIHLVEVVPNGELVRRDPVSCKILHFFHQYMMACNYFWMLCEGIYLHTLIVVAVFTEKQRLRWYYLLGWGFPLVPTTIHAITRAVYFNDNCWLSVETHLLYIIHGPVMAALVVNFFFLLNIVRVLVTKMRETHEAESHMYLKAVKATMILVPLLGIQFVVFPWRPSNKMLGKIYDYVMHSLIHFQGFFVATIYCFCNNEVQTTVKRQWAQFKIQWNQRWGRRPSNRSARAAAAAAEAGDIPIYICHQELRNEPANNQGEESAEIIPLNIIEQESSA
T1 sequence (O60896 whole entry): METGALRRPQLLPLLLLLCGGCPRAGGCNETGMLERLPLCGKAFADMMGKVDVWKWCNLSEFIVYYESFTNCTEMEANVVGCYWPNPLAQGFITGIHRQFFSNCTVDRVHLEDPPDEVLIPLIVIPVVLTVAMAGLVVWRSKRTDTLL
The data set is described as follows: Agonist activity at human amylin receptor expressed in BHK570 cells co-expressing RAMP3 assessed as increase in intracellular cAMP concentration incubated for 3 hrs in absence of albumin by CRE luciferase reporter gene assay. The format is functional, cell-based.

The target in data set [2] is T2, Calcitonin receptor (Homo sapiens, UniProt P30988).
T2 sequence (P30988 whole entry): T1 sequence (P30988 whole entry)
The data set is described as follows: Agonist activity at human calcitonin receptor expressed in BHK570 cells assessed as increase in intracellular cAMP concentration incubated for 3 hrs in absence of albumin by CRE luciferase reporter gene assay. The format is functional, cell-based.

Data set [3] has as its target T1, Amylin receptor AMY3; CALCR/RAMP3. The data set is described as follows: Agonist activity at human amylin receptor expressed in BHK570 cells co-expressing RAMP3 assessed as increase in intracellular cAMP concentration incubated for 3 hrs in presence of 10% FBS by CRE luciferase reporter gene assay. The format is functional, cell-based.
Data set [4] in a line: Solubility in 100 mM glycylglycine buffer at pH 3.0 incubated for 18 hrs by UPLC analysis. The format is physicochemical.
Data set [5] is described as follows: Solubility in 100 mM glycylglycine buffer at pH 4.0 incubated for 18 hrs by UPLC analysis. In kind it is physicochemical.
Data set [6] can be described thus: Solubility in 100 mM bistrispropane buffer at pH 6.0 incubated for 18 hrs by UPLC analysis. In kind it is physicochemical.
Data set [7] is described as follows: Solubility in 100 mM glycylglycine buffer at pH 5.0 incubated for 18 hrs by UPLC analysis. In kind it is physicochemical.
Data set [8] can be described thus: Solubility in 100 mM bistrispropane buffer at pH 6.5 incubated for 18 hrs by UPLC analysis. In kind it is physicochemical.
Data set [9] is described as follows: Solubility in 100 mM bistrispropane buffer at pH 7.0 incubated for 18 hrs by UPLC analysis. The format is physicochemical.
Data set [10] in a line: Solubility in 100 mM bistrispropane buffer at pH 7.5 incubated for 18 hrs by UPLC analysis. In kind it is physicochemical.
A short description of data set [11]: Solubility in 100 mM bistrispropane buffer at pH 8.0 incubated for 18 hrs by UPLC analysis. In kind it is physicochemical.
Data set [12] deals with T1, Amylin receptor AMY3; CALCR/RAMP3. The data set is described as follows: Displacement of [125I]-labeled rat amylin from human amylin receptor expressed in BHK tkts13 whole cells co-expressing RAMP3 incubated for 60 mins by scintillation proximity assay. In kind it is cell-based. On the technique in general: Loss of bound radioactivity is the signal in a displacement assay; it reports binding, not function.

Data set [13] has as its target T2, Calcitonin receptor. The data set is described as follows: Agonist activity at human calcitonin receptor expressed in BHK570 cells assessed as increase in intracellular cAMP concentration incubated for 3 hrs in presence of 10% FBS by CRE luciferase reporter gene assay. In kind it is functional, cell-based.

As usually defined, the EC50 is the concentration at which the effect is half-maximal. Usually solubility stands for the dissolved amount per volume that the medium holds. Read a low solubility as little dissolved substance. Usually IC50 stands for the midpoint of a concentration-inhibition curve. `CC(C)C[C@H](NC(=O)[C@H](C)NC(=O)[C@H](C)NC(=O)[C@@H](NC(=O)[C@H](CO)NC(=O)[C@H](CC(C)C)NC(=O)[C@H](CCC(=O)O)NC(=O)[C@H](CO)NC(=O)[C@H](C)NC(=O)CC[C@H](NC(=O)CCCCCCCCCCCCCCCCC(=O)O)C(=O)O)[C@@H](C)O)C(=O)NCC(=O)N[C@@H](CCCNC(=N)N)C(=O)N[C@@H](CC(C)C)C(=O)N[C@@H](CO)C(=O)N[C@@H](C)C(=O)N[C@@H](CCC(=O)O)C(=O)N[C@@H](CC(C)C)C(=O)N[C@@H](Cc1cnc[nH]1)C(=O)N[C@@H](CCC(=O)O)C(=O)N[C@@H](CC(C)C)C(=O)N[C@@H](C)C(=O)N[C@H](C(=O)N[C@@H](CC(C)C)C(=O)N1CCC[C@H]1C(=O)N[C@@H](CCCNC(=N)N)C(=O)N[C@H](C(=O)N[C@@H](CCC(=O)O)C(=O)N[C@H](C(=O)NCC(=O)N[C@@H](CO)C(=O)N[C@@H](CCC(=O)O)C(=O)N[C@@H](CO)C(=O)N1CCC[C@H]1C(N)=O)[C@@H](C)O)[C@@H](C)O)[C@@H](C)O` ({C18 diacid-γGlu}-ASELSTAALGRLSAELHELATLPRTETGSESP-NH2): the EC50 was 0.009 nM in data set [1], 0.004 nM in data set [2] and 0.026 nM in data set [3]. Moreover, the solubility at 18 h in data set [4], in data set [5], in data set [6], in [7], in data set [8] and in data set [9] was not below 200 µM each time. In addition, the solubility at 18 h in [10] and in data set [11] was not below 200 µM each time. Also, the IC50 in data set [12] is 0.83 nM.
On to `CC(C)C[C@H](NC(=O)[C@H](C)NC(=O)[C@H](C)NC(=O)[C@@H](NC(=O)[C@H](CO)NC(=O)[C@H](CC(C)C)NC(=O)[C@H](CCC(=O)O)NC(=O)[C@H](CO)NC(=O)[C@H](C)NC(=O)CC[C@H](NC(=O)CCCCCCCCCCCCCCCCC(=O)O)C(=O)O)[C@@H](C)O)C(=O)NCC(=O)N[C@@H](CCCNC(=N)N)C(=O)N[C@@H](CC(C)C)C(=O)N[C@@H](CO)C(=O)N[C@@H](C)C(=O)N[C@@H](CCC(=O)O)C(=O)N[C@@H](CC(C)C)C(=O)N[C@@H](Cc1cnc[nH]1)C(=O)N[C@@H](CCC(=O)O)C(=O)N[C@@H](CC(C)C)C(=O)N[C@@H](C)C(=O)N[C@H](C(=O)N[C@@H](CC(C)C)C(=O)N1CCC[C@H]1C(=O)N[C@@H](CCCNC(=N)N)C(=O)N[C@H](C(=O)N[C@@H](CCC(=O)O)C(=O)N[C@H](C(=O)NCC(=O)N[C@@H](CO)C(=O)NCC(=O)N1CCC[C@H]1C(=O)N1CCC[C@H]1C(N)=O)[C@@H](C)O)[C@@H](C)O)[C@@H](C)O` ({C18 diacid-γGlu}-ASELSTAALGRLSAELHELATLPRTETGSGPP-NH2), for which the EC50 is 0.08 nM in data set [1], 0.019 nM in data set [2] and 0.413 nM in data set [3]. Also, the solubility at 18 h in data set [4], in data set [5], in data set [6], in data set [7], in data set [8] and in data set [9] was not below 200 µM in each case. The solubility at 18 h in [10] and in [11] was not below 200 µM each time. Besides, the IC50 in [12] was 22 nM.
For `CC(C)C[C@H](NC(=O)[C@H](CCC(=O)O)NC(=O)[C@H](Cc1cnc[nH]1)NC(=O)[C@H](CC(C)C)NC(=O)[C@H](CCC(=O)O)NC(=O)[C@H](C)NC(=O)[C@H](CO)NC(=O)[C@H](CC(C)C)NC(=O)[C@H](CCCNC(=N)N)NC(=O)CNC(=O)[C@@H](NC(=O)[C@@H](NC(=O)[C@H](C)NC(=O)[C@@H](NC(=O)[C@H](CO)NC(=O)[C@@H](NC(=O)[C@H](CCC(=O)O)NC(=O)[C@H](CO)NC(=O)[C@H](C)NC(=O)CC[C@H](NC(=O)CCCCCCCCCCCCCCCCC(=O)O)C(=O)O)C(C)C)[C@@H](C)O)C(C)C)C(C)C)C(=O)N[C@@H](C)C(=O)N[C@H](C(=O)N[C@@H](CC(C)C)C(=O)N1CCC[C@H]1C(=O)N[C@@H](CCCNC(=N)N)C(=O)N[C@H](C(=O)N[C@@H](CCC(=O)O)C(=O)N[C@H](C(=O)NCC(=O)N[C@@H](CO)C(=O)NCC(=O)N[C@@H](CO)C(=O)N1CCC[C@H]1C(N)=O)[C@@H](C)O)[C@@H](C)O)[C@@H](C)O` ({C18 diacid-γGlu}-ASEVSTAVVGRLSAELHELATLPRTETGSGSP-NH2), the figures for the EC50 in data set [2], in data set [3] and in [13] were 0.008 nM, 0.038 nM and 0.011 nM, respectively. Besides, the solubility at 18 h in [4], in [6], in data set [8], in [9], in data set [10] and in data set [11] was not below 200 µM in each case. Moreover, the IC50 in data set [12] was 1.17 nM.
Consider `CC(C)C[C@H](NC(=O)CNC(=O)[C@H](CO)NC(=O)[C@H](C)NC(=O)CC[C@H](NC(=O)CCCCCCCCCCCCCCCCCCC(=O)O)C(=O)O)C(=O)N[C@@H](CO)C(=O)N[C@H](C(=O)N[C@@H](C)C(=O)N[C@H](C(=O)N[C@@H](CC(C)C)C(=O)NCC(=O)N[C@@H](CCCNC(=N)N)C(=O)N[C@@H](CC(C)C)C(=O)N[C@@H](CO)C(=O)N[C@@H](CCC(N)=O)C(=O)N[C@@H](CCC(=O)O)C(=O)N[C@@H](CC(C)C)C(=O)N[C@@H](Cc1cnc[nH]1)C(=O)N[C@@H](CCC(=O)O)C(=O)N[C@@H](CC(C)C)C(=O)N[C@@H](CCC(N)=O)C(=O)N[C@H](C(=O)N[C@@H](Cc1ccc(O)cc1)C(=O)N1CCC[C@H]1C(=O)N[C@@H](CCCNC(=N)N)C(=O)N[C@H](C(=O)N[C@@H](CCC(=O)O)C(=O)N[C@H](C(=O)NCC(=O)N[C@@H](CO)C(=O)N[C@@H](C)C(=O)N[C@H](C(=O)N[C@@H](Cc1ccc(O)cc1)C(N)=O)[C@@H](C)O)[C@@H](C)O)[C@@H](C)O)[C@@H](C)O)C(C)C)[C@@H](C)O` ({C20 diacid-γGlu}-ASGLSTAVLGRLSQELHELQTYPRTETGSATY-NH2), for which the EC50 in data set [2] was 0.052 nM; in [3], 0.077 nM; in [13], 0.037 nM. The solubility at 18 h in data set [4], in data set [5], in [6], in data set [8], in [9] and in data set [10] was not below 200 µM in each case. Besides, in data set [11], the solubility at 18 h was not below 200 µM. For the same compound, the IC50 in [12] was 0.244 nM.
Consider `CC(C)C[C@H](NC(=O)CC[C@H](NC(=O)CCCCCCCCCCCCCCCCCCC(=O)O)C(=O)O)C(=O)N[C@@H](CO)C(=O)N[C@@H](CCC(N)=O)C(=O)N[C@@H](CC(C)C)C(=O)N[C@@H](CO)C(=O)N[C@H](C(=O)N[C@@H](CC(C)C)C(=O)N[C@H](C(=O)N[C@@H](CC(C)C)C(=O)NCC(=O)N[C@@H](CCCNC(=N)N)C(=O)N[C@@H](CC(C)C)C(=O)N[C@@H](CO)C(=O)N[C@@H](CCC(N)=O)C(=O)N[C@@H](CCCNC(=N)N)C(=O)N[C@@H](CC(C)C)C(=O)N[C@@H](Cc1cnc[nH]1)C(=O)N[C@@H](CCCNC(=N)N)C(=O)N[C@@H](CC(C)C)C(=O)N[C@@H](CCC(N)=O)C(=O)N[C@H](C(=O)N[C@@H](Cc1ccc(O)cc1)C(=O)N1CCC[C@H]1C(=O)N[C@@H](CCCNC(=N)N)C(=O)N[C@H](C(=O)N[C@@H](CCC(N)=O)C(=O)N[C@H](C(=O)NCC(=O)N[C@@H](CO)C(=O)N[C@@H](CCC(N)=O)C(=O)N[C@H](C(=O)N[C@@H](Cc1ccc(O)cc1)C(N)=O)[C@@H](C)O)[C@@H](C)O)[C@@H](C)O)[C@@H](C)O)C(C)C)[C@@H](C)O` ({C20 diacid-γGlu}-LSQLSTLVLGRLSQRLHRLQTYPRTQTGSQTY-NH2), for which the EC50 in data set [1] is 0.01 nM; in [2] it was 0.012 nM; in data set [3], 0.044 nM; in [13], 0.05 nM. Besides, the IC50 in data set [12] was 10.7 nM.

Values taken from ChEMBL document CHEMBL4420076, “Amylin and calcitonin receptor agonist” (2017).
